Data: ChEMBL document CHEMBL1135760, “Anilinoquinazoline inhibitors of fructose 1,6-bisphosphatase bind at a novel allosteric site: synthesis, in vitro characterization, and X-ray crystallography” (J Med Chem, 2002)

Columns and labels:
[1] = Inhibition of human recombinant wild type fructose-1,6-bisphosphatase (F16BP)
[2] = target: Epidermal growth factor receptor (Homo sapiens, UniProt P00533); test: Inhibition of (EGFR) epidermal growth factor receptor tyrosine kinase
Sequence of Epidermal growth factor receptor (P00533 whole entry): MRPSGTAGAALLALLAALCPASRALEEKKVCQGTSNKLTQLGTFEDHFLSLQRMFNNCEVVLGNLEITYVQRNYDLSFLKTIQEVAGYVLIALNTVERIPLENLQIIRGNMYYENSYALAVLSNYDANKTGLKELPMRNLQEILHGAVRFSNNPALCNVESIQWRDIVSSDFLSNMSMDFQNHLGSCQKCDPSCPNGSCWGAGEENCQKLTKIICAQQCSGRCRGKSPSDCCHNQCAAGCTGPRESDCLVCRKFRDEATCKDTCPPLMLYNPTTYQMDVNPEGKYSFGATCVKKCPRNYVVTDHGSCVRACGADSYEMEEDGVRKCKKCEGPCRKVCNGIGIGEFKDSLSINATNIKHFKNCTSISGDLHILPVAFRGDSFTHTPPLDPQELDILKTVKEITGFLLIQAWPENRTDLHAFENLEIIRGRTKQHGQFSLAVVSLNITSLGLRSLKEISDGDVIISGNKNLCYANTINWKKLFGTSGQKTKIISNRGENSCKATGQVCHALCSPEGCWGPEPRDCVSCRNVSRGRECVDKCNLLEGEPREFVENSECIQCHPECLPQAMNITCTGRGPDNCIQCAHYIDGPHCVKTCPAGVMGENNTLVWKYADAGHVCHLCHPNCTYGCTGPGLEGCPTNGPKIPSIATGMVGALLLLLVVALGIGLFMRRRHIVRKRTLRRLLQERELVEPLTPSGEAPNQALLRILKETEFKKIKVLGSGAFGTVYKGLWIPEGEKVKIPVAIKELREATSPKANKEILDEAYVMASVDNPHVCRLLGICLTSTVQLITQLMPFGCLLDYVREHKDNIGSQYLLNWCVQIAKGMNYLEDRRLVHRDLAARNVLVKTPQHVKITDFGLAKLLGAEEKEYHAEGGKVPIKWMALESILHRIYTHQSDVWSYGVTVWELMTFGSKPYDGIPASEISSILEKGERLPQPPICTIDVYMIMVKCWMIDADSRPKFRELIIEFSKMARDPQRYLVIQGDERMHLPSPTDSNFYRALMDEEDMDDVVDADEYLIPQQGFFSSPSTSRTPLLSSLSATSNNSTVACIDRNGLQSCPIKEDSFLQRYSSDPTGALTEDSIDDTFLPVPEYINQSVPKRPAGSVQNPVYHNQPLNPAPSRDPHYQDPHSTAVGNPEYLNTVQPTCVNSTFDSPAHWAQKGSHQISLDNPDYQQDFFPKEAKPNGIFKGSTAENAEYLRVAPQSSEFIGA

SMILES | IC50 [1] [µM] | IC50 [2] [µM]
Cc1nc(-c2cccc(Nc3ncnc4cc5c(cc34)OCCO5)c2)cs1 | > 10 | 
CCOc1cc2ncnc(Nc3cccc(-c4ccc(C)cc4)c3)c2cc1OCC | > 10 | 
CCOc1cc2ncnc(Nc3cccc(-c4nc[nH]n4)c3)c2cc1OCC | 0.64 | 0.39
CCOc1cc2ncnc(Nc3cccc(-c4cocn4)c3)c2cc1OCC | 3.6 | 0.72
CCOc1cc2ncnc(Nc3cccc(-c4cccc(C)c4)c3)c2cc1OCC | > 10 | 
CCOc1cc2nc(CCl)nc(Nc3cccc(Br)c3)c2cc1OCC | > 10 | 
CCOc1cc2nc(CS(C)(=O)=O)nc(Nc3cccc(-c4csc(C)n4)c3)c2cc1OCC | 2.1 | 
CCC(C)Oc1cc2ncnc(Nc3cccc(-c4csc(C)n4)c3)c2cc1OC (stereo not given) | 1.3 | 
COCCOc1cc2ncnc(Nc3cccc(-c4csc(C)n4)c3)c2cc1OC | > 10 | 
CCOc1cc2nc(CN(C)C)nc(Nc3cccc(-c4csc(C(N)=O)n4)c3)c2cc1OCC | 2.4 | 
CCOc1cc2c(Nc3cccc(-c4csc(C)n4)c3)ncnc2c(OCC)c1OCC | > 10 | 
Cc1nc(-c2cccc(Nc3ncnc4ccccc34)c2)cs1 | > 10 | 
CCOc1cc2ncnc(Nc3cccc(-c4cccnc4)c3)c2cc1OCC | 1.4 | 
CCOc1cc2nc(Cc3ccccc3)nc(Nc3cccc(-c4csc(C)n4)c3)c2cc1OCC | > 10 | 
CCOc1cc2ncnc(Nc3cccc(C(=O)CBr)c3)c2cc1OCC | > 10 | 
CCOc1cc2nc(CN3CCCC3)nc(Nc3cccc(-c4csc(C)n4)c3)c2cc1OCC | 6.1 | 
CCOc1cc2nc(CC(C)C)nc(Nc3cccc(Br)c3)c2cc1OCC | > 10 | 
COc1cc2c(Nc3cccc(-c4csc(C)n4)c3)ncnc2cc1OC(C)C | 2.3 | 

SMILES | IC50 [1] [µM] | IC50 [2] [µM]
CCOc1cc2nc(CC(=O)O)nc(Nc3cccc(-c4csc(C)n4)c3)c2cc1OCC | 0.96 | 
CCOc1cc2ncnc(Nc3cccc(-c4csc(Cc5ccccc5)n4)c3)c2cc1OCC | > 10 | 
COCCOc1cc2c(Nc3cccc(-c4csc(C)n4)c3)ncnc2cc1OC | > 10 | 
CCOc1cc2nc(C(F)(F)F)nc(Nc3cccc(-c4csc(C)n4)c3)c2cc1OCC | > 10 | 
COc1cc2ncnc(Nc3cccc(-c4csc(C)n4)c3)c2cc1OC | 4.4 | 
COc1cc2c(Nc3cccc(-c4csc(C)n4)c3)ncnc2cc1OC1CCCC1 | > 10 | 
COc1cc2c(Nc3cccc(-c4csc(C)n4)c3)ncnc2cc1OCC(C)C | > 10 | 
CCOc1cc2ncnc(Nc3cccc(-c4ccccc4C)c3)c2cc1OCC | > 10 | 
Cc1nc(-c2cccc(Nc3ncnc4cc5ccccc5cc34)c2)cs1 | > 10 | 
CCOc1cc2ncnc(Nc3cccc(-c4csc(-c5ccccc5)n4)c3)c2cc1OCC | > 10 | 
CCNCc1nc(Nc2cccc(-c3csc(C)n3)c2)c2cc(OCC)c(OCC)cc2n1 | 6 | 
COc1cc2ncnc(Nc3cccc(-c4csc(C)n4)c3)c2cc1OC(C)C | > 10 | 
CCOc1cc2nc(CC(C)C)nc(Nc3cccc(-c4csc(C)n4)c3)c2cc1OCC | 1.7 | 
CCOc1cc2nc(CS(C)(=O)=O)nc(Nc3cccc(Br)c3)c2cc1OCC | > 10 | 
CCOc1cc2ncnc(Nc3cccc(-c4ccccn4)c3)c2cc1OCC | 0.39 | 
CCOc1cc2nc(Cn3ccnc3)nc(Nc3cccc(-c4csc(C)n4)c3)c2cc1OCC | 0.77 | 
CCOc1cc2ncnc(Nc3cccc(-c4ccccc4)c3)c2cc1OCC | > 10 | 

Next, values leading:

IC50 [1] [µM] | IC50 [2] [µM] | SMILES
1 | 9 | CCOc1cc2nc(C)nc(Nc3cccc(-c4csc(C)n4)c3)c2cc1OCC
1.4 |  | CCCc1nc(Nc2cccc(-c3csc(C)n3)c2)c2cc(OCC)c(OCC)cc2n1
3.5 | 0.56 | CCOc1cc2ncnc(Nc3cccc(-c4csc(N)n4)c3)c2cc1OCC
> 10 |  | CCOc1cc2ncnc(Nc3ccc(F)c(-c4csc(C)n4)c3F)c2cc1OCC
> 10 |  | CCCc1nc(-c2cccc(Nc3ncnc4cc(OCC)c(OCC)cc34)c2)cs1
3.4 |  | CCOc1cc2ncnc(Nc3cccc(-c4csc(C)n4)c3)c2cc1OC
0.83 |  | CCOc1cc2ncnc(Nc3cccc(-c4csc(C5CC5)n4)c3)c2cc1OCC
1 |  | CCCOc1cc2ncnc(Nc3cccc(-c4csc(C)n4)c3)c2cc1OCC
2.1 |  | CCOc1cc2ncnc(Nc3cc(-c4csc(C)n4)ccc3CC)c2cc1OCC
0.78 |  | CCOc1cc2ncnc(Nc3cccc(-c4csc(OC)n4)c3)c2cc1OCC
> 10 |  | CCOc1cc2ncnc(Nc3cc(-c4csc(C)n4)c(F)cc3F)c2cc1OCC
1.2 |  | CCOc1cc2c(Nc3cccc(-c4csc(C)n4)c3)ncnc2cc1OC
6.1 |  | CCOc1nc(-c2cccc(Nc3ncnc4cc(OCC)c(OCC)cc34)c2)cs1
> 10 |  | CCOc1cc2ncnc(Nc3cccc(C(C)=O)c3)c2cc1OCC
1.7 |  | CCOc1cc2ncnc(Nc3cc(-c4csc(C)n4)ccc3Cl)c2cc1OCC
0.48 |  | CCOc1cc2ncnc(Nc3cc(-c4csc(C)n4)ccc3F)c2cc1OCC
8 |  | CCOc1cc2ncnc(Nc3cccc(-c4csc(N(C)C)n4)c3)c2cc1OCC
5 |  | CCOc1cc2nc(C(C)C)nc(Nc3cccc(-c4csc(C)n4)c3)c2cc1OCC
0.42 |  | CCOc1cc2c(Nc3cccc(-c4csc(C)n4)c3)ncnc2cc1OC(C)C
0.65 |  | CCOc1cc2ncnc(Nc3cccc(-c4nc(C)cs4)c3)c2cc1OCC
> 10 |  | CCCCOc1cc2c(Nc3cccc(-c4csc(C)n4)c3)ncnc2cc1OC

IC50 [1] [µM] | IC50 [2] [µM] | SMILES
4.5 |  | CCOc1cc2ncnc(Nc3cccc(-c4csc(NN)n4)c3)c2cc1OCC
1.5 |  | CCOc1cc2nc(CN)nc(Nc3cccc(-c4csc(C)n4)c3)c2cc1OCC
1.8 |  | CCOc1cc2ncnc(Nc3cc(-c4csc(C)n4)ccc3C)c2cc1OCC
0.61 |  | CCOc1cc2ncnc(Nc3ccc(F)c(-c4csc(C)n4)c3)c2cc1OCC
0.8 |  | CCOc1cc2ncnc(Nc3cccc(-c4csc(NC)n4)c3)c2cc1OCC
2 |  | CCOc1cc2nc(CN(C)C)nc(Nc3cccc(-c4csc(C)n4)c3)c2cc1OCC
0.5 |  | CCOc1cc2ncnc(Nc3cccc(-c4coc(C)n4)c3)c2cc1OCC
> 10 |  | CCOc1cc2ncnc(Nc3cccc(-c4csc(C(=O)O)n4)c3)c2cc1OCC
5.3 |  | CCOc1cc2ncnc(Nc3ccc(Cl)c(-c4csc(C)n4)c3)c2cc1OCC
7.3 |  | CCOc1cc2ncnc(Nc3cccc(-c4csc(COC)n4)c3)c2cc1OCC
1.4 |  | CCOc1cc2nc(COC)nc(Nc3cccc(-c4csc(C)n4)c3)c2cc1OCC
0.83 |  | CCOc1cc2ncnc(Nc3cccc(-c4nc(C(N)=O)cs4)c3)c2cc1OCC
> 10 |  | CCCCOc1cc2ncnc(Nc3cccc(-c4csc(C)n4)c3)c2cc1OC
0.99 |  | CCOc1cc2ncnc(Nc3cc(-c4csc(C)n4)ccc3OC)c2cc1OCC
0.22 |  | CCOc1cc2nc(CCN)nc(Nc3cccc(-c4csc(C)n4)c3)c2cc1OCC
2.6 |  | CCOc1cc2nc(Cl)nc(Nc3cccc(-c4csc(C)n4)c3)c2cc1OCC
1.8 |  | CCOc1ccc(-c2csc(C)n2)cc1Nc1ncnc2cc(OCC)c(OCC)cc12
5.6 |  | CCCOc1cc2ncnc(Nc3cccc(-c4csc(C)n4)c3)c2cc1OC
> 10 |  | CCOc1cc2ncnc(Nc3cc(-c4csc(C)n4)cc(C(F)(F)F)c3)c2cc1OCC
> 10 |  | CCOc1cc2ncnc(Nc3cc(-c4csc(C)n4)ccc3Br)c2cc1OCC
